From US20050100540A1, “Platelet-activating factor acetylhydrolase” (priority 1993, published 2005)

Biological target: T1, recombinant PAF-AH (Homo sapiens, UniProt Q13093)
T1 construct: 441 amino acids; At the amino terminus, a relatively hydrophobic segment of 41 residues precedes the N-terminal amino acid (the isoleucine at position 42); made in house; host or cells: E. coli (constructs trp AH / pUC trp AH)
T1 sequence (Q13093 42-441): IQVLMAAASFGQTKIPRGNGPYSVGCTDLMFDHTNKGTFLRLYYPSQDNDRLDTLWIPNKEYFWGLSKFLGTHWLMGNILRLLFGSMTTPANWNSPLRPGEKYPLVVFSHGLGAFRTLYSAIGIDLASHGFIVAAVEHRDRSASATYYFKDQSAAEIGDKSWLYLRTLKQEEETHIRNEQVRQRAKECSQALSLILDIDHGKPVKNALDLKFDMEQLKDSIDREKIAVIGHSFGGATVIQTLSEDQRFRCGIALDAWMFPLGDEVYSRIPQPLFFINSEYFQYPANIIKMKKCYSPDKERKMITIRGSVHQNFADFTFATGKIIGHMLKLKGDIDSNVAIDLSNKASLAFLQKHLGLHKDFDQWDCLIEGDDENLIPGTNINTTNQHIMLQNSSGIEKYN
Assay: Inhibition of PAF hydrolysis in standard PAF hydrolysis assay
Assay type: biochemical
Conditions: 0 to 125 μM; highest concentration 5-fold greater than PAF
Experimental: The most remarkable property of the PAF acetylhydrolase is its marked specificity for substrates with a short residue at the sn-2 position of the substrate. This strict specificity distinguishes PAF acetylhydrolase from other forms of PLA2. Thus, to determine if recombinant PAF-AH degrades phospholipids with long-chain fatty acids at the sn-2 position, hydrolysis of 1-palmitoyl-2-arachidonoyl-sn-glycero-3-phosphocholine (arachidonoylPC) was assayed since this is the preferred substrate for a well-characterized form of PLA2. […] In additional experiments, arachidonoylPC was included in a standard PAF hydrolysis assay at concentrations ranging from 0 to 125 μM to determine whether it inhibited the hydrolysis of PAF by recombinant PAF-AH. There was no inhibition of PAF hydrolysis even at the highest concentration of […], which was 5-fold greater than the concentration of PAF. […] Native plasma PAF-AH has several other properties that distinguish it from other phospholipases including calcium-independence and resistance to compounds that modify sulfhydryl groups or disrupt disulfides.

With `CCCCC/C=C\C/C=C\C/C=C\C/C=C\CCCC(=O)O[C@H](COC(=O)CCCCCCCCCCCCCCC)COP(=O)([O-])OCC[N+](C)(C)C` [arachidonoylPC, 1-palmitoyl-2-arachidonoyl-sn-glycero-3-phosphocholine] the “Inhibition of hydrolysis of PAF by recombinant PAF-AH” value was “no inhibition”.
